Values quoted from earlier work as cited in patent US20170296470A1, “TWO SPEED MONOLOTHIC SYSTEM FOR CONTROLLED RELEASE OF DRUGS” (Matripharm Inc., priority 2011, published 2017).

Conditions: for numbers needed to harm: one out of N patients likely to suffer a first-time heart attack: patients in the age group of 65 and over; for risk of heart attack increased: patients prescribed the NSAID vs those who had not taken these drugs in the previous three years

SMILES: O=C(O)Cc1ccccc1Nc1c(Cl)cccc1Cl [diclofenac]
- numbers needed to harm: one out of N patients likely to suffer a first-time heart attack: 521 patients
- risk of heart attack increased: 55%

SMILES: CC(C)Cc1ccc(C(C)C(=O)O)cc1 (centres unmarked) [ibuprofen]
- numbers needed to harm: one out of N patients likely to suffer a first-time heart attack: 1005 patients
- risk of heart attack increased: 24%

SMILES: CS(=O)(=O)c1ccc(C2=C(c3ccccc3)C(=O)OC2)cc1 [rofecoxib]
- numbers needed to harm: one out of N patients likely to suffer a first-time heart attack: 695 patients
